Reference: article PMC9546217, “Exploring novel nitrofuranyl sulfonohydrazides as anti‐Leishmania and anti‐cancer agents: Synthesis, in vitro efficacy and hit identification” (Chemical Biology & Drug Design, 2022)
Read-outs that look alike come from different tables or passages of the source.

Legend:
[1] = system: L. major strain IR‐173 amastigotes; assay: Anti-amastigote assay (intramacrophage, THP-1 host, resazurin); assay type: cell-based; settings: for IC50: read-out: Antileishmanial activity, IC50 ± SD, Amastigote; for Specificity index SpI1: L. major IR‐173: IC50 promastigote/IC50 amastigote; for Selectivity index SI2: L. major: IC50 THP‐1/IC50 amastigote
Procedure: (§1) The activities of synthesized compounds against the intramacrophage parasites of the three Leishmania strains were evaluated using a modified, resazurin‐based method (Jain et al., [2012]; Njanpa et al., [2021]). Suspension cultures of human acute monocytic leukemia (THP‐1) cells were maintained in RPMI‐1640 medium (Sigma Aldrich) supplemented with 10% FBS and 1% penicillin–streptomycin, at 37°C and 5% CO2 in a humidified atmosphere. Duplicate 96‐well plates (for respective anti‐amastigote and cytotoxicity assays) were seeded with 200 μl of a 2.5 × 10^5 cells/ml suspension treated with 25 ng/ml phorbol 12‐myristate 13‐acetate (PMA), followed by 48‐h incubation to promote differentiation into adherent macrophages.
(§2) For the anti‐amastigote assay, differentiated plates were carefully washed with PBS, followed by the addition of 200 μl of stationary phase promastigotes in RPMI 1640 medium with 2% FBS. An MOI of 30:1 was used for all three Leishmania strains. The parasite‐treated plates were incubated for 24 h at 32°C (L. major) or 37°C (L. donovani) and 5% CO2 to promote infection of the macrophages. […] Blanks were represented by growth medium without cells, as well as parasite‐free THP‐1 cells. The treated plates were incubated for 72 h.
(§3) After incubation, the plates were gently washed three times with PBS to remove any remaining extracellular parasites. The wells were then treated with 20 μl of 0.05% sodium dodecyl sulfate in PBS for 30 s to lyse the host macrophages. Lysis was terminated by adding 180 μl promastigote growth medium with 10% FBS. To initiate the resazurin assay, 10 μl of resazurin solution (0.025% in PBS) was added to all wells and the plates were incubated for 24 h at 32°C (L. major) or 37°C (L. donovani) and 5% CO2. Absorbance measurements, calculations, and IC50 determinations were performed as described for the antipromastigote assay (Supinfo S1).

[2] = system: L. donovani strain 1S amastigotes; assay: as above; assay type: cell-based; settings: for IC50: L. donovani 1S, read-out: 1S IC50 ± SD, Amastigote; for Selectivity index SI4: L. donovani 1S: IC50 THP‐1/IC50 amastigote; for Selectivity index SI3: L. donovani 1S: IC50 Vero/IC50 amastigote; for Specificity index SpI2: L. donovani 1S: IC50 promastigote/IC50 amastigote
Procedure: as §1, §2, §3

[3] = system: L. donovani strain 9515 amastigotes; assay: as above; assay type: cell-based; settings: for Selectivity index SI6: L. donovani 9515: IC50 THP‐1/IC50 amastigote; for Selectivity index SI5: L. donovani 9515: IC50 Vero/IC50 amastigote; for Specificity index SpI3: L. donovani 9515: IC50 promastigote/IC50 amastigote; for IC50: L. donovani 9515, read-out: 9515 IC50 ± SD, Amastigote
Procedure: as §1, §2, §3

A375 melanoma cells = assay: Anticancer assay (resazurin); assay type: cell-based, human; settings: for IC50: n = 3, read-out: Anticancer activity, IC50 ± SD, A375
Procedure: (§4) The anticancer activities of synthesized compounds were evaluated using a resazurin‐based assay (Czekanska, [2011]). Accordingly, a screening method similar to that of the cytotoxicity assay was used to screen for anticancer activity, using human melanoma (A375), promyelocytic leukemia (Clone 15 HL‐60), lung cancer (A549), and breast cancer (MCF7) cells. The culture and assay methods are provided in the Supinfo S1.
(§5) The potential anticancer activities of synthesized compounds were screened using the resazurin assay. ^5 Breast adenocarcinoma (MCF7, ATCC® HTB-22™) and human melanoma (A375, ATCC® CRL-1619™) cells were cultured in Hyclone Dulbecco's modified Eagle’s medium with high glucose (Separations) supplemented with 10 % fetal bovine serum (FBS) (Thermofisher Scientific) and 1 % L-glutamine, penicillin-streptomycin and non-essential amino acids (Lonza). Human lung carcinoma (A549, ATCC®, CCL-185™) cells were cultured in Ham’s F12K medium supplemented with 10% FBS and 1% L-glutamine, penicillin-streptomycin and non-essential amino acids. Human promyelocytic leukemia (Clone 15 HL-60, ATCC® CRL-1946™) cells were cultured in RPMI-1640 medium (Sigma Aldrich) supplemented with 10% FBS and 1% penicillin-streptomycin. The cell lines were maintained in a humidified atmosphere at 37 °C and 5% CO2.
(§6) For the resazurin assay, 96 well plates were prepared with 100 μL of 100 000 cells/mL MCF7 cell suspension, 100 μL of 50 000 cells/mL A375 cell suspension, 100 μL of 25 000 cells/mL A549 cell suspension, or 50 μL of 50 000 cells/mL HL-60 cell suspension. The MCF7, A375 and A549 cell plates were incubated for 24 hours to allow adherence of the cells to the plate surface, after which the growth medium is replaced with 100 μL medium containing compounds. […] The cell lines were treated with: (i) parthenolide (Sigma Aldrich) (positive control); (ii) growth medium and solvent (negative control to compensate for possible solvent effects); (iii) growth medium and experimental compound solutions. […] Blanks contained growth medium without cells. The treated plates were incubated for 48 hours.
(§7) To initiate the resazurin assay, 50 μL of sterile-filtered resazurin sodium salt (Sigma Aldrich) solution (0.01 % in PBS) was added and the plates incubated for 2 hours (MCF7, A375 and A549 cells) or 24 hours (HL-60 cells). Absorbance was measured at 570 and 600 nm using the Thermofisher Scientific GO Multiscan plate reader. Data analysis was performed for each biological replicate using SkanIt 4.0 Research Edition software. Further data analysis, calculations and IC50 determinations were identical to that of the antileishmanial and cytotoxicity assays.
(§8) For the final IC50 of each compound, the mean IC50 of the biological replicates were calculated with standard deviation (SD).

[4] = system: Clone 15 HL‐60 promyelocytic leukemia cells; assay: Anticancer assay (resazurin); assay type: cell-based, human; settings: for Preliminary screening, growth inhibition, Clone 15 HL‐60: cutoff 50% growth inhibition at 10 μM; for IC50: read-out: Anticancer activity, IC50 ± SD, Clone 15 HL‐60; for Selectivity Index SI1 (anticancer): IC50 Vero (Table 2)/IC50 Clone 15 HL‐60
Procedure: as §4, §5, §6, §7, §8

[5] = Basal cytotoxicity, resazurin assay; settings: African green monkey
Procedure: The assay method is available in the Supinfo S1.
African green monkey kidney epithelial (Vero) cells (Cellonex, South Africa) were cultured and the basal cytotoxicity of the synthesized compounds with antileishmanial and/or anticancer activity was evaluated using the resazurin assay, as described in Mangwegape et al. ^4 Emetine served as the standard cytotoxic drug. Further use of reference drugs, controls, data analysis, calculations and IC50 determinations were identical to that of the antileishmanial assay.

[6] = Leishmania major, THP-1, L. major IR‐173

Compound	Selectivity index SI6 [3]	Selectivity index SI5 [3]	Specificity index SpI3 [3]	Preliminary screening, growth inhibition, Clone 15 HL‐60 [4]	IC50 ([4]; n = 3)	IC50 [1, 6]	IC50 ([2]; Leishmania donovani, THP-1)	IC50 ([3]; Leishmania donovani, THP-1)	IC50 (A375 melanoma cells; Homo sapiens, A-375)	IC50 ([4]; Homo sapiens, HL-60, n = 3)	Selectivity Index SI1 (anticancer) [4]	IC50 ([5]; Vero cells (kidney epithelial))	Selectivity index SI4 [2]	Selectivity index SI3 [2]	Specificity index SpI2 [2]	also measured
(E)-2,4,6-Trimethyl-N'-[(5-nitrofuran-2-yl)methylene]benzenesulfonohydrazide [2e]	> 16	6	0.65	qualified	> 10 µM											IC50 ([1]; L. major IR‐173): > 10 µM; IC50 [2]: > 10 µM; IC50 [3]: 6.14 ± 0.83 µM; IC50 (A375 melanoma cells): > 10 µM
CC(C)c1ccc(S(=O)(=O)N/N=C/c2ccc([N+](=O)[O-])o2)cc1 [2d, (E)-4-Isopropyl-N'-[(5-nitrofuran-2-yl)methylene]benzenesulfonohydrazide]					7.85 ± 0.38 µM	< 10 µM	> 10 µM	> 10 µM	> 10 µM	< 10 µM	3	22.2 ± 0.8 µM				Specificity index SpI1 [1]: 0.57; IC50 ([1]; L. major IR‐173): 8.3 ± 0.78 µM; Selectivity index SI2 [1]: 11
CC(C)(C)c1ccc(S(=O)(=O)N/N=C/c2ccc([N+](=O)[O-])o2)cc1 [2f, (E)-4-(tert-Butyl)-N'-[(5-nitrofuran-2-yl)methylene]benzenesulfonohydrazide]	9	3	0.36			> 10 µM	6.36 µM	9.62 ± 1.15 µM	> 10 µM		6	29.2 ± 5.86 µM	13	5	0.83	
O=[N+]([O-])c1ccc(/C=N/NS(=O)(=O)c2cccc3c2OCCO3)o1 [2l, (E)-N'-[(5-Nitrofuran-2-yl)methylene]-2,3-dihydrobenzo[b][1,4]dioxine-5-sulfonohydrazide]	> 13	5	0.92			> 10 µM	6.36 µM	7.85 ± 0.21 µM	> 10 µM	> 10 µM		41.2 ± 3.3 µM	> 16	6	1.45	
O=[N+]([O-])c1ccc(/C=N/NS(=O)(=O)c2ccc(-c3ccccc3)cc2)o1 [2h, (E)-N'-[(5-Nitrofuran-2-yl)methylene]-(1,1'-biphenyl)-4-sulfonohydrazide]	8	3	0.24	qualified		> 10 µM	2.94 ± 0.3 µM	6.29 ± 0.62 µM	8.05 ± 0.57 µM		17	16.4 ± 5.8 µM	17	6	0.49	Selectivity index SI2 (anticancer) (A375 melanoma cells; IC50 Vero (Table 2)/IC50 A375): 2; Preliminary screening, growth inhibition, A375 (A375 melanoma cells; cutoff 50% growth inhibition at 10 μM): qualified
Cc1ccc(S(=O)(=O)N/N=C/c2ccc([N+](=O)[O-])o2)cc1 [2c, (E)-4-Methyl-N'-[(5-nitrofuran-2-yl)methylene]benzenesulfonohydrazide]				qualified		> 10 µM	> 10 µM	> 10 µM	> 10 µM	> 10 µM						
O=C1CN(/N=C/c2ccc([N+](=O)[O-])o2)C(=O)N1 [NFT, nitrofurantoin, reference compound]						> 10 µM	> 10 µM	8.56 ± 1.95 µM	> 10 µM	> 10 µM						IC50 [5]: > 100 µM
O=C(N/N=C/c1ccc([N+](=O)[O-])o1)c1ccc(O)cc1 [NFX, Nifuroxazide, reference compound]	> 14	> 14				> 10 µM	> 10 µM		> 10 µM	8.97 ± 0.47 µM	> 11					IC50 [5]: > 100 µM
O=Cc1ccc([N+](=O)[O-])o1 [NFA, 5‐nitro‐2‐furaldehyde, reference compound]	9	3			9.45 ± 0.61 µM	8.35 ± 0.89 µM	> 10 µM	8.56 ± 0.65 µM	> 10 µM	< 10 µM	2	23.2 ± 2.62 µM				Specificity index SpI1 [1]: 0.87; Selectivity index SI2 [1]: 10; Selectivity index SI1 ([1]; L. major: IC50 Vero/IC50 amastigote): 3
